Counter-ions that a name gives are not always drawn. Like-named read-outs stand apart in the source and are kept apart here.
Legend:
aphthous ulcers = settings: background, cited from earlier work; for efficacy of prior treatment: aphthous ulcers/stomatitis
[1] = Concentration at the ulcer assuming the troche dissolves in 0.1 ml of saliva; settings: assuming troche dissolved in 0.1 ml saliva
Protocol: Application of the penicillin/magnesium stearate troches in the aforementioned manner created a supratherapeutic concentration of penicillin on the raw surface of the aphthous ulcer. Assuming that the troche is dissolved in 0.1 ml of saliva locally at the ulcer, the initial concentration of penicillin would reach up to 500 mg/ml, and that of magnesium stearate 10 mg/ml. Under the influence of this extraordinarily high concentration of penicillin G or penicillin V, most microorganisms of the normal flora cannot survive or continue to multiply, permitting tissue regeneration processes to occur under the protective barrier coating formed by the magnesium stearate.
When the oxytetracycline hydrochloride/magnesium stearate troches are applied in the manner described in Example 1, extraordinarily high concentrations of antibiotic were released on the raw surface of the treated ulcers. Assuming that the troche is dissolved in 0.1 ml of saliva, the peak concentration of oxytetracycline would be between about 400-800 mg/ml locally at the site of the ulcer, and that of magnesium stearate 10 mg/ml.

[2] = Local peak and one-hour trough antibiotic concentration in loculated saliva at the site of the troche (microbiological dilution assay); type: in vivo, human; settings: 50 mg troche; for local trough concentration of penicillin in saliva: end of one-hour duration
[3] = tested on: Staphylococcus aureus (ATCC 29213); test: Minimum inhibitory concentration against the standard strain by serial two-fold dilution in nutrient broth; type: cell-based
Protocol: For determination of the peak concentration, 1 ml of the bacteria-free filtrate was further diluted with 9 ml of nutrient broth to achieve a 1:10,000 dilution of the saliva. Then a serial two-fold dilution was made of this 1:10,000 diluted saliva sample with an equal volume of nutrient broth in a roll of test tubes to obtain a series of 1 ml aliquots of nutrient broth in which the saliva was diluted to 20,000, 40,000, 80,000, 160,000, 320,000, 640,000, 1,280,000 and 2,560,000 folds respectively. […] Thus the final dilutions of the saliva sample were in the range of 40,000 to 5,120,000 folds.
As control standards, a series of test tubes containing 1 ml of nutrient broth with varying concentrations of penicillin G potassium salt ranging from 0.1 units to 10 units/ml were similarly mixed with an equal volume of nutrient broth freshly inoculated with the standard tubes of Staphylococcus aureus. Both the test and control standard tubes were incubated at 37° C. for 18 hours. Among the test tubes showing no gross evidence of bacterial growth, the one containing the highest dilution of saliva and the one containing the least amount of penicillin G were considered as having the identical concentration of penicillin, i.e. the MIC of the staphylococcus aureus.

[4] = single intravenous injection of penicillin G, usually 500 mg; cited from earlier work
Gram-negative bacilli = settings: cited from earlier work
[5] = tested on: Patients with aphthous ulcers; test: Topical treatment of patients with aphthous ulcers; type: in vivo, human
Protocol: Patients with aphthous ulcers were advised to brush their teeth to rid them of food residues, and to rinse their mouths with water prior to initiating treatment.
One penicillin/magnesium stearate troche was placed in the patients' mouths directly over the ulcerated lesion. The troche was dissolved or disintegrated in a minimum amount of saliva directly over the ulcer in no more than 15 minutes, preferably in about 8 to about 12 minutes. The patients were advised to keep the ingredients of the disintegrated troche at the site of the lesion as long as possible. Food and beverages were avoided for one hour after each treatment. If multiple aphthous ulcers were present, one troche was required for the treatment of each ulcer. The topical treatments were conducted 4 times daily, for example, after breakfast, after lunch, after dinner and before bed time for no more than 4 days. […] The burning sensation lessened with subsequent applications.
For instance, the first sign of healing is usually the fading of the hyperemic zone at the periphery of the ulcer and the lessening of edema at the base of the ulcer. The membrane covering the ulcer becomes thinner, more translucent, more pearly white instead of a grayish-yellowish white prior to the application and contract with the troche. […]

[6] = tested on: Staphylococcus aureus (ATCC 29213); settings: ATCC 29213, known range; cited from earlier work

O=C1CCC(N2C(=O)c3ccccc3C2=O)C(=O)N1 (stereo not shown) [Thalidomide]
efficacy of prior treatment (aphthous ulcers): effective in some HIV-infected patients
adverse reactions of prior treatment (aphthous ulcers): teratogenic

CCCCCCCCCCCCCCCCCC(=O)O [magnesium stearate]
concentration of magnesium stearate at the ulcer [1]: 10000 µg/mL

CN(C)[C@@H]1C(=O)C(C(N)=O)=C(O)[C@@]2(O)C(=O)C3=C(O)c4c(O)cccc4[C@@](C)(O)[C@H]3[C@H](O)[C@@H]12 [oxytetracycline hydrochloride, Oxytetracycline hydrochloride]
one-hour trough concentration of oxytetracycline hydrochloride in saliva ([2]; two subjects, 60 min): 8 mg/mL
Cmax ([2]; human, in vivo, topical or ocular, 50 mg, two subjects, read-out: initial peak concentration of oxytetracycline hydrochloride in saliva): 400000 µg/mL
concentration at 1 h ([2]; human, in vivo, topical or ocular, two subjects, read-out: one-hour trough concentration of oxytetracycline hydrochloride in saliva): 8000 µg/mL
MIC ([3]; Staphylococcus aureus, ATCC29213, ATCC 29213, read-out: sensitivity to oxytetracycline hydrochloride, MIC): 1 µg/mL
initial/peak concentration of antibiotic at the ulcer [1]: 400 to 800 mg/mL

CC1(C)S[C@@H]2[C@H](NC(=O)Cc3ccccc3)C(=O)N2[C@H]1C(=O)O [penicillin G]
average peak blood level [4]: about 26 units/ml
susceptibility of many Gram-negative bacilli (Salmonella, Shigella, most Escherichia coli, all Proteus mirabilis, most Bacteroides strains) (Gram-negative bacilli; 740 mcg/ml as cut-off MIC): sensitive
susceptibility of Gram-negative bacilli (Gram-negative bacilli; at 16 mcg/ml): resistant
local trough concentration of penicillin in saliva [2]: 4,000-64,000 units/ml
local trough concentration of penicillin in saliva ([2]; 60 min): 2.5 to 40 mg/mL
Cmax ([2]; human, in vivo, topical or ocular, at complete dissolution, read-out: initial peak local concentration of penicillin G in saliva): 500000 µg/mL
MIC of penicillin G for the standard strain of Staphylococcus aureus ([3]; three experiments, 37° C., 18 hours): 1 unit/ml

CC1(C)S[C@@H]2[C@H](NC(=O)Cc3ccccc3)C(=O)N2[C@H]1C(=O)O [penicillin]
efficacy of prior treatment (aphthous ulcers): ineffective
adverse reactions of prior treatment (aphthous ulcers): likely to produce hypersensitivity
adverse reactions of stomatitis or discoloration of the tongue ([5]; 4 days of penicillin medication): no observed adverse reactions
status of ulcer after 4 days of medication ([5]; after 4 days): only remnants of a thin pearly whitish membrane remain, if any, covering an incompletely re-epithelialized newly healed ulcer
known minimum inhibitory concentration (MIC) of the standard strain [6]: 0.25-2 units of penicillin/ml

O=S(=O)([O-])[O-].[Zn+2] [zinc sulfate]
efficacy of prior treatment (aphthous ulcers): responded

aluminum subsalt of sucrose-8-sulfate [sucralfate]
efficacy of prior treatment (aphthous ulcers): responded

From US5981499A, “Lesion-directed antibiotics in dry dosage forms for the treatment of shallow ulcers of the oral mucosa” (Atlantic Biomed Corporation, priority 1998, dated 1999)
